Results published in ChEMBL document CHEMBL1155531, “Structure guided design of 5-arylindazole glucocorticoid receptor agonists and antagonists” (J Med Chem, 2010).
pEC50, pIC50: −log10 of the molar value.

Experiments:
Progesterone receptor = target: T1, Progesterone receptor (Homo sapiens, UniProt P06401); experiment: Binding affinity to PR
T1 sequence (P06401 whole entry): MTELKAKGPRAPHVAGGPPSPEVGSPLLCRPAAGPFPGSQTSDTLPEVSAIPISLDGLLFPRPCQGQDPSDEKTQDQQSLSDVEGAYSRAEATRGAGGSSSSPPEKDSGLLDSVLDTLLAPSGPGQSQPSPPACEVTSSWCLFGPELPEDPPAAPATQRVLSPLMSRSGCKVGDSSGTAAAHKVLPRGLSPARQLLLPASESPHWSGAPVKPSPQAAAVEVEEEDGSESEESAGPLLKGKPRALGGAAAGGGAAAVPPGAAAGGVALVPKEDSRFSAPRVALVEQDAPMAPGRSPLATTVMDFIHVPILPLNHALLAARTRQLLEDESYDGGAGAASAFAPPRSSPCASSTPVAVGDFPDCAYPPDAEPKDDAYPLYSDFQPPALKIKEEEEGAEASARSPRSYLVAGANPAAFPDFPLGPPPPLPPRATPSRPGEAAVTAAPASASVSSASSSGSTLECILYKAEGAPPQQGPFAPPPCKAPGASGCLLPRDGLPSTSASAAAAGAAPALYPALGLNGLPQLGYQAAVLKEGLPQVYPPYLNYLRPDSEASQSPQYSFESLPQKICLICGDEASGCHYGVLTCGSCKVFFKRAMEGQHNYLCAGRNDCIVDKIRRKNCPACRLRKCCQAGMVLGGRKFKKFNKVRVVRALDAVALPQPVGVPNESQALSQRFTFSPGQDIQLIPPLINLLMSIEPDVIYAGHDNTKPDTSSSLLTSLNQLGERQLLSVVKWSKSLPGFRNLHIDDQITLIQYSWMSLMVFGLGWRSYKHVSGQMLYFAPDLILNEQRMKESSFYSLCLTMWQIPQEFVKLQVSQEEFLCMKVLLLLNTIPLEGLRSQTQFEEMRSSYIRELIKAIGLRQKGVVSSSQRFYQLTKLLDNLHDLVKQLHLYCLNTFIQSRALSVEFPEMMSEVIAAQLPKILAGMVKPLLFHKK

Glucocorticoid receptor = target: T2, Glucocorticoid receptor (Homo sapiens, UniProt P04150); experiment: Agonist activity at GR in human A549 cells transfected with luciferase gene linked to MMTV promoter assessed as luciferase transactivation activity after 24 hrs; assay type: functional, cell-based
T2 sequence (P04150 whole entry): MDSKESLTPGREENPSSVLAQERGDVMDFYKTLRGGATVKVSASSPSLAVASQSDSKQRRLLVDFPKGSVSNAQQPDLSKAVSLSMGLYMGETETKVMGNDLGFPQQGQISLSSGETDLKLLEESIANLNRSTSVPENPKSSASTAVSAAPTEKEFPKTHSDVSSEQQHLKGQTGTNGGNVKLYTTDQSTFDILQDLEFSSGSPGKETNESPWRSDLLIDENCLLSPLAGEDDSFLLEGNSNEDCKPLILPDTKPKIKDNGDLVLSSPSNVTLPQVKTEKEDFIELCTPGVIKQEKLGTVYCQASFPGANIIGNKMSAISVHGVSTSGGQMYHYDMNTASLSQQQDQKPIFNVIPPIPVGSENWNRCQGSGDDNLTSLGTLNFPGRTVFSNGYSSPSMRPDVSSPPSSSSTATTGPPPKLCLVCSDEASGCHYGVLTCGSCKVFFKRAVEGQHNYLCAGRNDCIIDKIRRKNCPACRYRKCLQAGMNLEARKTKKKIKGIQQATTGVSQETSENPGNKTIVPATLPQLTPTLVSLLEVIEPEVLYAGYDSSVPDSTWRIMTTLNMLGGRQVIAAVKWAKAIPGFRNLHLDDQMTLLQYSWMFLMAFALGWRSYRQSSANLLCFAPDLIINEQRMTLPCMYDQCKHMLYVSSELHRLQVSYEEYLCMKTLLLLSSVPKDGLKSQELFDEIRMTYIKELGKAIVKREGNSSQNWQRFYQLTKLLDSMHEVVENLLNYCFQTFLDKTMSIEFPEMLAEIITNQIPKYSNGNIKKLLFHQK

[1] = Antiinflammatory activity in human primary synovial fibroblasts assessed as inhibition of IL1-induced IL6 release after 18 hrs by MSD technology; assay type: functional
[2] = Antiinflammatory activity in human primary synovial fibroblasts assessed as inhibition of IL1-induced IL8 release after 18 hrs by MSD technology; assay type: functional
[3] = Antiinflammatory activity in human primary synovial fibroblasts assessed as inhibition of IL1-induced MMP1 release after 18 hrs by MSD technology; assay type: functional
[4] = Plasma clearance in CD rat at 1 mg/kg, po and 1 mg/kg, iv; assay type: ADME, organism-based
[5] = Elimination half life in DBA1 mouse at 1 mg/kg, po and 1 mg/kg, iv; assay type: ADME, organism-based; settings: in vivo, read-out: beta t1/2 (converted)
[6] = Oral bioavailability in DBA1 mouse at 1 mg/kg; assay type: ADME, organism-based; settings: in vivo
[7] = Relative plasma concentration in mouse assessed as ratio of plasma concentration in mouse at 0.1 mg/kg, po to IC50 for NF-kappaB transrepression activity in A549 cells expressing MMTV reporter gene; assay type: ADME, organism-based; parameters: dose 0.1 mg/kg, route oral; settings: in vivo
Mus musculus [8] = experiment: Inhibition of IL1-induced circulating IL6 release in mouse at 1 mg/kg, po; assay type: functional
Mus musculus [9] = experiment: Inhibition of IL1-induced circulating IL6 release in mouse at 0.1 mg/kg, po; assay type: functional

Compound: O=S(=O)(Cc1ccccc1)Nc1ccc(-c2ccc3c(cnn3-c3ccc(F)cc3)c2)c(C(F)(F)F)c1
- pIC50 (Progesterone receptor): < 5.00
- pEC50 (Glucocorticoid receptor): 7.70
- pIC50 [1]: 8.50
- pIC50 [2]: 8.70
- pIC50 [3]: 8.90
- clearance [4]: 8 mL/min/kg
- half-life [5]: 4 h
- bioavailability [6]: > 51%
- fold change (FC) [7]: 2.5
- inhibition in vivo at 1 mg/kg (Mus musculus [8]): 0%
- inhibition in vivo at 0.1 mg/kg (Mus musculus [9]): 0%
